Test results reported in patent US7754736B2, “5-aminoindole derivatives as H3 inverse agonists” (Hoffmann-La Roche Inc., priority 2005, dated 2010).
Counter-ions that a name gives are not always drawn.

Molecular target: T1, histamine 3 receptor (H3R) (Homo sapiens, UniProt Q9Y5N1)
T1 construct: expressed in transfected cells; host or cells: CHO cells
Assay: Competition binding assay with 3H-(R)α-methylhistamine on membranes of the human HR3-CHO cell line
Details: competition with 3H(R)α-Methylhistamine (1 nM), Ki calculated from IC50 by Cheng-Prusoff equation
Method: Binding Assay with ^3H-(R)α-methylhistamine Saturation binding experiments were performed using HR3-CHO membranes prepared as described in […]. Pharmacol. Exp. Therapeutics 307, 213-218. An appropriate amount of membrane (60 to 80 μg protein/well) was incubated with increasing concentrations of ^3H(R)α-Methylhistamine di-hydrochloride (0.10 to 10 nM). Non specific binding was determined using a 200 fold excess of cold (R)α-Methylhistamine dihydrobromide (500 nM final concentration). The incubation was carried out at room temperature (in deep-well plates shaking for three hours). The final volume in each well was 250 μl. The incubation was followed by rapid filtration on GF/B filters (pre-soaked with 100 μl of 0.5% PEI in Tris 50 mM shaking at 200 rpm for two hours). The filtration was made using a cell-harvester and the filter plates were then washed five times with ice cold washing buffer containing 0.5 M NaCl. After harvesting, the plates were dried at 55° C. for 60 min, then we added scintillation fluid (Microscint 40, 40 microl in each well) and the amount of radioactivity on the filter was determined in Packard top-counter after shaking the plates for two hours at 200 rpm at room temperature. Binding Buffer: 50 mM Tris-HCl pH 7.4 and 5 mM MgCl2×6H2O pH 7.4. Washing Buffer: 50 mM Tris-HCl pH 7.4 and 5 mM MgCl2×6H2O and 0.5 M NaCl pH 7.4. […] An appropriate amount of protein, e.g. approximately 500 cpm binding of RAMH at Kd, were incubated for 1 hour at room temperature in 250 μl final volume in 96-well plates in presence of ^3H(R)α-Methylhistamine (1 nM final concentration=Kd). Non-specific binding was determined using a 200 fold excess of cold (R)α-Methylhistamine dihydrobromide. All compounds were tested at a single concentration in duplicates. […] Ki's were calculated from IC50 based on Cheng-Prusoff equation (Cheng, Y, Prusoff, W H (1973) Biochem Pharmacol 22, 3099-3108).

T1 sequence (Q9Y5N1 whole entry): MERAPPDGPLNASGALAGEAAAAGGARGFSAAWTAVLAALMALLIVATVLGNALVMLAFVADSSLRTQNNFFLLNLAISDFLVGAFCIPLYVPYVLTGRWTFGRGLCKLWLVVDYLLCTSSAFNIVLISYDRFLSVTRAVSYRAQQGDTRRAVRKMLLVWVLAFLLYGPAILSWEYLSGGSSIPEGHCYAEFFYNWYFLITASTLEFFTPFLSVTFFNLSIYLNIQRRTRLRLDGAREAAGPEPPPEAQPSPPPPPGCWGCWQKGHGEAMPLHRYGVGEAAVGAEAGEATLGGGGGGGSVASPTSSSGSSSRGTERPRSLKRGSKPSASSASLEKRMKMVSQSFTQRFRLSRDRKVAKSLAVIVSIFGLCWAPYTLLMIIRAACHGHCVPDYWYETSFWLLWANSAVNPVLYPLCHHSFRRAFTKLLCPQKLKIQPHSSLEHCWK

Row | Ki [nM] | SMILES
1 | 256 | CC(C)N1CCC(Nc2ccc3[nH]c(C(=O)N4CCOCC4)cc3c2)C1 (stereo not drawn) [Example 11, [5-(1-isopropyl-pyrrolidin-3-ylamino)-1H-indol-2-yl]-morpholin-4-yl-methanone bis-hydrochloride]
2 | 66 | CC(C)N1CCC(Oc2ccc3[nH]c(C(=O)N(C)C(C)C)cc3c2)CC1 [Example 19, 5-(1-isopropyl-piperidin-4-yloxy)-1H-indole-2-carboxylic acid isopropyl-methyl-amide]
3 | 47.5 | CC(C)N1CCC(Nc2ccc3[nH]c(C(=O)N4CCOCC4)cc3c2)CC1 [Example 3, [5-(1-isopropyl-piperidin-4-ylamino)-1H-indol-2-yl]-morpholin-4-yl-methanone]
